Laboratory results taken from patent US20230023285A1, “PHARMACEUTICAL COMPOSITION FOR USE IN PREVENTING OR STOPPING METASTASES” (LOGICK ENERGETICS B.V., priority 2019, published 2023).

How the values were obtained:
Adiponectin = Adiponectin gene expression by qPCR in MTΔECad cells; format: cell-based, mouse; conditions: qPCR normalized to GAPDH
Experimental: (§1) For the stimulation of MTΔECad cells the following concentrations were used: PPS (5 μg/ml), Indomethacin (50 μM), en Pioglitazone (10 μM).
(§2) Untreated cell lines were employed as negative controls. As read-outs of adipogenesis, several approaches were tested: • 1. Oil red O staining by histochemistry. • 2. Nile Red staining by immuno-fluorescence (IF) • 3. RTqPCR (gene expression analysis) • Adiponectin (adipocyte marker) • EpCam (marker for epithelial cells) FIGS. 15a-d show stimulation schemes; FIGS. 15a-b according to prior art, and FIGS. 15c-15d according to the present invention.
(§3) Inventors studied the effect of treatment of MTΔECad cells with the different compounds and combinations on EpCAM expression as a marker for epithelial cells and Adiponectin expression as a marker for adipocytes.
(§4) Steps performed when measuring gene expression using real-time PCR.
(§5) RNA was first isolated and characterized for quantity and integrity. During a two-step reaction, cDNA was first synthesized and then used as a PCR template. The housekeeping gene GAPDH was used for normalizing the results. A normalization factor has been used for calculating each individual sample. Dividing the fluorescent data by its normalization factor produced the normalized data, which was followed by statistical analysis.

EpCAM = EpCAM gene expression by qPCR in MTΔECad cells; format: cell-based, mouse; conditions: qPCR normalized to GAPDH
Experimental: as §1, §2, §3, §4, §5

Molecule | adiponectin gene expression (Adiponectin) | EpCAM gene expression (EpCAM)
COc1ccc2c(c1)c(CC(=O)O)c(C)n2C(=O)c1ccc(Cl)cc1 [Indomethacin] | obviously stimulated adiponectin gene expression | clearly stimulated EpCAM expression
Pentosan polysulphate [PPS] | no effect | no significant effect
